Source: publication PMC4756849, “A novel high-throughput activity assay for the Trypanosoma brucei editosome enzyme REL1 and other RNA ligases” (Nucleic Acids Research, 2015)
Counter-ions that a name gives are not always drawn. Like-named read-outs stand apart in the source and are kept apart here.

What was measured:
Trypanosoma brucei REL1 [1] = target: T1, Trypanosoma brucei REL1 (Trypanosoma brucei brucei, UniProt P86926); assay: biochemical; type: biochemical
T1 construct: made in house; host or cells: Escherichia coli BL21 (DE3), polycistronic pET-21d construct
Method: Substrate RNAs were annealed in the presence of 25 mM KCl, 12.5 mM Tris–HCl pH 8.0, 5 mM Mg(OAc)2 and 0.25 mM DTT at a concentration of 1 μM in 10-ml batches by incubation at 70°C for 10 min, followed by slow cooling to room temperature. Annealed substrate was stored at −80°C. For 2400 assays, 2.4 μl 100 mM ATP were added to 12 ml pre-annealed substrate and 5 μl of the mixture dispensed into each well of a 384-well assay plate (Greiner 788075). A total of 50 nl of LOPAC (Sigma-Aldrich; 2 mM in DMSO) or Maybridge Hitfinder (Thermo Fisher Scientific; 2 mM in DMSO) compounds were added per well using a Biomek FX instrument. Recombinant REL1 was diluted in 10% (v/v) glycerol, 300 mM NaCl, 2 mM DTT and 20 mM Tris–HCl pH 6.0 to a final concentration of 300 ng/μl. One hundred twenty microliter REL1 solution were added to 11.88 ml ligation buffer (5 mM KCl; 12.5 mM Tris–HCl pH 6.0; 1 mM Mg(OAc)2; 0.25 mM DTT, 0.2% (w/v) Triton X-100; 0.003% (w/v) Brij 35) and 5 μl of the REL1/ligation buffer mix were added to each well to start the reaction ([…] REL1 per well). A total of 50 μM NSC-42067 served as positive control for inhibition ([34]). As additional controls, each plate included reactions without inhibitor and reactions without REL1. After 30 min incubation at room temperature the reaction was stopped by adding 12.5 μl STOP solution (9 M urea; 20 mM EDTA). After a minimum incubation period of 15 min plates were read using a ratiometric wavelength read (excitation at 485 nm, detection at 665 and 535 nm). HTS was carried out at The Scripps Research Institute, San Diego, CA, USA.
To validate the suitability of the FRET-based REL1 activity assay for HTS, the assay conditions were adapted to 384-well format to facilitate a pilot screen. An ATP concentration of 10 μM was chosen as a compromise between sensitivity to inhibition and robust S:B ratio.
Figure 5. […] Data were plotted as% inhibition compared to controls without inhibitor and fitted to a sigmoidal curve. […] All experiments were carried out under optimized conditions, and means and standard deviations for three replicates are shown.

Trypanosoma brucei REL1 [2] = target: T1, Trypanosoma brucei REL1; assay: Non-denaturing PAGE of RNA ligation reaction by REL1; type: biochemical; conditions: increasing concentrations of compound, optimized conditions, Figure S4
Method: After ligation reaction, 20% (w/v) polyacrylamide gels were used to separate the RNA molecules by non-denaturing PAGE in Tris-borate-EDTA (TBE) buffer. For denaturing PAGE, gels contained 7 M urea. Gels were analyzed using a Typhoon FLA 7000 (GE Healthcare).
Figure S4. Non-denaturing PAGE showing inhibition of RNA ligation reaction by compound NSC42067. Lanes 1, 2 and 3 were loaded with the 16-nt 6-FAM 5’-RNA substrate, the 13-nt Cy5 3’- RNA substrate and a 29-nt dual 6-FAM/Cy5-labelled DNA oligo, respectively. Lane 4 was left empty.
Lanes 5 to 8 show products from standard reaction conditions and controls. Lanes 9 to 11 show the effects of increasing concentrations of NSC42067 in the assay. Ligation reactions were carried out under optimized conditions. The gel analysis confirmed the following:
Lanes 1 - 3: See Supplementary Figure S1.
Lanes 5 to 7: As before (compare Supplementary Figure S1), incubation of 5’- and 3’-RNAs with […]
The intensity of both bands increased with longer incubation time (compare lane 6 = 5 min with lane 7 = 30 min) and was dependent on the presence of REL1 (lane 5).
Figure S5. Structures of the hit compounds selected for validation.
Figure S6. Scatter plot showing the results of the second pilot screen. Compounds of the Maybridge library were incubated at 10 µM concentration in 384-well plates with REL1 (7.8 nM) in the presence […]
Stop buffer was added after 30 min. […]

human hemopoietic cells = conditions: cited from earlier work
T. brucei gambiense = system: T. brucei gambiense; parameters: method as in PMID 14982785; conditions: in vitro; cited from earlier work
[3] = single-shot HTS, 10 μM final compound concentration, 10 μM ATP, as suggested by HTS
[4] = dose-response curves, HTS/optimized assay conditions, 10 μM ATP, influenced by unknown percentage of active protein
[5] = dose-response curves, HTS/optimized assay conditions, 10 μM ATP, influenced by unknown percentage of active protein, read-out: IC50

T1 sequence (P86926 51-469): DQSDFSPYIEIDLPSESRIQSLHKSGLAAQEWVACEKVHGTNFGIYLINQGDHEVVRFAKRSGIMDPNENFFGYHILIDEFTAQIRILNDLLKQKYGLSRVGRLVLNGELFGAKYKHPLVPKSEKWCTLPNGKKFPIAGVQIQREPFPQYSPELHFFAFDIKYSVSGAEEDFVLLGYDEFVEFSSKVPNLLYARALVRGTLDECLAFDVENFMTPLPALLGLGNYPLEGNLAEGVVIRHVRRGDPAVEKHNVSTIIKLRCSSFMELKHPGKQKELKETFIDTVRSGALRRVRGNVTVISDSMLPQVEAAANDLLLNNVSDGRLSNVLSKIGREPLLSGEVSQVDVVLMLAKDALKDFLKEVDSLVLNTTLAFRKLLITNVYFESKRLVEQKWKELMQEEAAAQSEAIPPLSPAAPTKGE

Compound	Inhibition at 10 μM (Trypanosoma brucei REL1 [1]; read-out: Inhibition at 10 μM) [%]	Inhibition at 10 μM (Trypanosoma brucei REL1 [1]; [3]) [%]	also measured
CSc1nc(N)c2ncn([C@@H]3O[C@H](COP(=O)(O)OP(=O)(O)O)[C@@H](O)[C@H]3O)c2n1 [2-(Methylthio)adenosine 5′-diphosphate trisodium salt hydrate]	22	–	–
Nc1nc(Cl)nc2c1ncn2[C@@H]1O[C@H](COP(=O)(O)OP(=O)(O)OP(=O)(O)O)[C@@H](O)[C@H]1O [2-Chloroadenosine triphosphate tetrasodium hydrate]	18	–	–
Cn1c(=O)c2[nH]c(-c3ccc(S(=O)(=O)O)cc3)nc2n(C)c1=O [8-(p-Sulfophenyl)theophylline hydrate]	23	–	–
CC(=O)OC[C@H]1O[C@@H]([S-])[C@H](OC(C)=O)[C@@H](OC(C)=O)[C@@H]1OC(C)=O.CCP(CC)CC.[Au+] [Auranofin]	–	24	–
OC[C@H]1O[C@H]([S-])[C@H](O)[C@@H](O)[C@@H]1O.[Au+] [Aurothioglucose hydrate]	–	93	IC50 (μM) (Trypanosoma brucei REL1 [1]; [4]): low μM range; IC50 (Trypanosoma brucei REL1 [1]; [5]): 12100 nM
NC(=O)c1cc[n+](CC2=C(C(=O)[O-])N3C(=O)[C@@H](NC(=O)[C@@H](c4ccccc4)S(=O)(=O)[O-])[C@H]3SC2)cc1.[Na+] [Cefsulodin sodium salt hydrate]	–	46	–
CC(=O)OCC1=C(C(=O)[O-])N2C(=O)[C@@H](NC(=O)CCC[C@@H](N)C(=O)[O-])[C@H]2SC1.[Zn+2] [Cephalosporin C zinc salt]	–	21	–
CC(C)NC(C)Cc1ccc(I)cc1 (stereo not shown) [Iofetamine hydrochloride]	70	–	–
NC(N)=NOCC[C@H](N)C(=O)O [L-Canavanine]	46	–	–
O=C(O)/C(=C/c1c(C(=O)O)[nH]c2cc(Cl)cc(Cl)c12)c1ccccc1 [MDL 105,519]	–	18	–
O=[N+]([O-])/C=C/c1ccc2c(c1)OCO2 [MNS]	–	22	–
CN(N=O)c1ccc(O)c(O)c1 [Methyl-3,4-dephostatin]	–	97	IC50 (Trypanosoma brucei REL1 [1]; [5]): > 50000 nM; Inhibition in dose-response curve (Trypanosoma brucei REL1 [1]; up to 50 μM concentration): no significant inhibition
O.O=c1c(O)c(-c2ccc(O)cc2O)oc2cc(O)cc(O)c12 [Morin hydrate]	–	17	–
O=c1c(O)c(-c2cc(O)c(O)c(O)c2)oc2cc(O)cc(O)c12 [Myricetin]	100	–	IC50 (Trypanosoma brucei REL1 [1]): 1780 nM; IC50 (μM) (Trypanosoma brucei REL1 [1]; [4]): low μM range
O=C(Nc1cccc(C(=O)Nc2ccc(S(=O)(=O)[O-])c3cc(S(=O)(=O)[O-])cc(S(=O)(=O)[O-])c23)c1)Nc1cccc(C(=O)Nc2ccc(S(=O)(=O)[O-])c3cc(S(=O)(=O)[O-])cc(S(=O)(=O)[O-])c23)c1.[Na+].[Na+].[Na+].[Na+].[Na+].[Na+] [NF 023 hydrate]	–	79	IC50 (μM) (Trypanosoma brucei REL1 [1]; [4]): low μM range; IC50 (Trypanosoma brucei REL1 [1]; [5]): 1950 nM
O=C(O)c1cc(O)c(O)c(OC(=O)c2cc(O)c(O)c(O)c2CNc2ccc3cc(S(=O)(=O)O)cc(S(=O)(=O)O)c3c2)c1 [NSC42067]	–	–	Effect on formation of the ligation product (gel) (Trypanosoma brucei REL1 [2]): inhibit formation of the ligation product; IC50 (Trypanosoma brucei REL1 [1]; [5]): 1400 nM
C#CCN[C@H](C)Cc1ccccc1.Cl [R-(–)-Desmethyldeprenyl hydrochloride]	–	38	–
Cc1ccc(C(=O)Nc2ccc(S(=O)(=O)O)c3cc(S(=O)(=O)O)cc(S(=O)(=O)O)c23)cc1NC(=O)c1cccc(NC(=O)Nc2cccc(C(=O)Nc3cc(C(=O)Nc4ccc(S(=O)(=O)O)c5cc(S(=O)(=O)O)cc(S(=O)(=O)O)c45)ccc3C)c2)c1 [Suramin sodium salt]	66	–	IC50 (Trypanosoma brucei REL1 [1]): 2940 nM; IC50 (μM) (Trypanosoma brucei REL1 [1]; [4]): low μM range
N#C/C(=C\c1ccc(O)c(O)c1)C(=O)NCCCNC(=O)/C(C#N)=C/c1ccc(O)c(O)c1 [Tyrphostin AG 537]	–	93	IC50 (μM) (Trypanosoma brucei REL1 [1]; [4]): low μM range; IC50 (Trypanosoma brucei REL1 [1]; [5]): 250 nM
CC(C)N(CCC(=O)c1ccc2ccccc2c1)Cc1ccccc1.Cl [ZM 39923 hydrochloride]	–	26	–
N.N.[Cl][Pt][Cl] [cis-Diammineplatinum(II) dichloride]	–	14	–
O=c1c(O)c(-c2ccc(O)c(O)c2)oc2cc(O)cc(O)c12 [quercertin]	–	–	Effect on human hemopoietic cells (human hemopoietic cells): without affecting human hemopoietic cells; LD50 (T. brucei gambiense): 10 µM
CC1(C)CCC2=C(O1)c1ccccc1C(=O)C2=O [β-Lapachone]	48	–	–
